pEC50, pIC50, pKi: −log10 of the molar value. “And” between values parts separate entries of the source, which are not always exact repeats. Identical values can stand only once. Like-named read-outs stand apart in the source and are kept apart here.
Legend:
CatL [1] = molecular target: T1, CatL (Homo sapiens, UniProt P07711, T223A); assay: CatL inhibition assay (Ki), substrate Z-RR-AMC; format: biochemical
T1 construct: made in house; host or cells: Komagataella pastoris strain GS115
In short: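 Buffer: 50 mM sodium acetate pH 4.0, 50 mM NaCl, 0.1% PEG 6000, 5 mM DTT; epoxide inhibitors separately in 50 mM sodium phosphate pH 6.0 with same additives.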

[2] = system: SARS-CoV-2-GFP in Vero E6 cells; assay: microbe, parasite or virus in culture; format: cell-based
CatL [3] = details: Table S1, SI reference list; cited from earlier work
[4] = in DMSO; compound supply and quality parameters, supplier named in Table S4; cited from earlier work
[5] = Cell viability assay (CellTiter-Blue); details: chlorocebus sabaeus
Vero cells = system: Vero cells; parameters: method as in PMID 32541865; details: another assay using Vero cells; cited from earlier work
bovine serum albumin = molecular target: T2, bovine serum albumin (Bos taurus, UniProt P02769); format: binding
T2 construct: purchased Merck, Germany
T2 sequence (P02769 25-607): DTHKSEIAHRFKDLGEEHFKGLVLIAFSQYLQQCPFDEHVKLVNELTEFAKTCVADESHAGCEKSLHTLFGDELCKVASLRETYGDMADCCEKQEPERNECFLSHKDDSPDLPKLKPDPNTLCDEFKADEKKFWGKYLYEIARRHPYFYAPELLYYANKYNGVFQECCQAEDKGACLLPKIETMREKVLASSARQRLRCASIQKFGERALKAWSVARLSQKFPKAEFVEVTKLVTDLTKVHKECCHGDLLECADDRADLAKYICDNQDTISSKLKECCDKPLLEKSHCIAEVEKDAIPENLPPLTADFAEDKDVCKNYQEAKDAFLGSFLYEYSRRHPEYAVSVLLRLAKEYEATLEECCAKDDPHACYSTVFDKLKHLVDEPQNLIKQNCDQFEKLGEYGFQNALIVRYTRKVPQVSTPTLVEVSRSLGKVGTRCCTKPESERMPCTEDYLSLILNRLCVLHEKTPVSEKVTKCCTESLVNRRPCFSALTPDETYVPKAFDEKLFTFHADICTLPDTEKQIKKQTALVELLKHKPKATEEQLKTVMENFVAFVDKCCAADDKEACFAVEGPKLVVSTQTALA

CatL [6] = molecular target: T1, CatL; assay: NanoDSF, thermal stability of CatL; format: binding
SARS-CoV-2 Mpro = SARS-CoV-2 Mpro (Severe acute respiratory syndrome coronavirus 2, UniProt P0DTD1); format: binding
[7] = system: SARS-CoV-2 wild-type SA-WA1/2020; parameters: method as in PMID 32541865; details: Vero cells, read-out: half-maximal effective concentration; cited from earlier work

T1 sequence (P07711 114-333 T223A): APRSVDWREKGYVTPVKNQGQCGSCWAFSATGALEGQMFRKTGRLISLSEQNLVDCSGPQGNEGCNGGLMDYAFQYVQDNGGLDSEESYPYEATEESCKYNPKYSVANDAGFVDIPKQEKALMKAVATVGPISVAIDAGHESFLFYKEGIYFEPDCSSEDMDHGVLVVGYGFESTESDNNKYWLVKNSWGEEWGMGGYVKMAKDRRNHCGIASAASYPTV

CCCC(NC(=O)C(CC(C)C)NC(=O)OCc1ccccc1)C(=O)C(=O)NCc1ccccn1 (stereo not shown) [CI-XII, Benzyl N-[1-[[1.2-dioxo-1-(pyridin-2-ylmethylamino)hexan-3-yl]amino]-4-methyl-1-oxopentan-2-yl]carbamate]
Residual activity (Vi/V0) (CatL [1]; CI-XII 0.055 uM): 0.9785 and 0.9376
Residual activity (Vi/V0) (CatL [1]; CI-XII 0.091 uM): 0.9548 and 0.9431
Residual activity (Vi/V0) (CatL [1]; CI-XII 0.152 uM): 0.9354 and 0.8807
Residual activity (Vi/V0) (CatL [1]; CI-XII 0.254 uM): 0.873 and 0.9321
Residual activity (Vi/V0) (CatL [1]; CI-XII 0.423 uM): 0.8656 and 0.8369
Residual activity (Vi/V0) (CatL [1]; CI-XII 0.705 uM): 0.7709 and 0.7656
Residual activity (Vi/V0) (CatL [1]; CI-XII 1.176 uM): 0.6641 and 0.6442
Residual activity (Vi/V0) (CatL [1]; CI-XII 1.960 uM): 0.5112 and 0.4696
Residual activity (Vi/V0) (CatL [1]; CI-XII 3.266 uM): 0.3345 and 0.322
Residual activity (Vi/V0) (CatL [1]; CI-XII 5.443 uM): 0.1956 and 0.1842
Residual activity (Vi/V0) (CatL [1]; CI-XII 9.072 uM): 0.1094 and 0.09936
Residual activity (Vi/V0) (CatL [1]; CI-XII 15.120 uM): 0.06322 and 0.05321
Residual activity (Vi/V0) (CatL [1]; CI-XII 25.200 uM): 0.03696 and 0.03366
Residual activity (Vi/V0) (CatL [1]; CI-XII 42.000 uM): 0.01939 and 0.02113
Residual activity (Vi/V0) (CatL [1]; CI-XII 70.000 uM): 0.01108 and 0.01542
fold lower Ki than 13b (CatL [1]; CatL Ki relative to 13b): ~500 fold
pKi (CatL [1]; Ki, CatL, Z-RR-AMC, pH 4.0, 37 °C): 9.19
remaining activity at 0.055 µM (CatL [1]; read-out: Residual activity (Vi/V0), CI-XII 0.055 uM): 101%
remaining activity at 0.091 µM (CatL [1]; read-out: Residual activity (Vi/V0), CI-XII 0.091 uM): 100%
remaining activity at 0.152 µM (CatL [1]; read-out: Residual activity (Vi/V0), CI-XII 0.152 uM): 102%
remaining activity at 0.254 µM (CatL [1]; read-out: Residual activity (Vi/V0), CI-XII 0.254 uM): 94.7%
remaining activity at 0.423 µM (CatL [1]; read-out: Residual activity (Vi/V0), CI-XII 0.423 uM): 84.5%
remaining activity at 0.705 µM (CatL [1]; read-out: Residual activity (Vi/V0), CI-XII 0.705 uM): 75%
remaining activity at 1.176 µM (CatL [1]; read-out: Residual activity (Vi/V0), CI-XII 1.176 uM): 65.7%
remaining activity at 1.96 µM (CatL [1]; read-out: Residual activity (Vi/V0), CI-XII 1.960 uM): 52.2%
remaining activity at 3.266 µM (CatL [1]; read-out: Residual activity (Vi/V0), CI-XII 3.266 uM): 34.9%
remaining activity at 5.443 µM (CatL [1]; read-out: Residual activity (Vi/V0), CI-XII 5.443 uM): 17.4%
remaining activity at 9.072 µM (CatL [1]; read-out: Residual activity (Vi/V0), CI-XII 9.072 uM): 9.65%
remaining activity at 15.12 µM (CatL [1]; read-out: Residual activity (Vi/V0), CI-XII 15.120 uM): 5.77%
remaining activity at 25.2 µM (CatL [1]; read-out: Residual activity (Vi/V0), CI-XII 25.200 uM): 3.2%
remaining activity at 42 µM (CatL [1]; read-out: Residual activity (Vi/V0), CI-XII 42.000 uM): 1.92%
remaining activity at 70 µM (CatL [1]; read-out: Residual activity (Vi/V0), CI-XII 70.000 uM): 1.07%
pEC50 ([2]; Severe acute respiratory syndrome coronavirus 2, Vero C1008, 24 h, read-out: EC50 (24 h)): 8.19
pEC50 ([2]; Severe acute respiratory syndrome coronavirus 2, Vero C1008, 24 h, read-out: EC50 (after 24 h)): 8.20
pEC50 ([2]; Severe acute respiratory syndrome coronavirus 2, Vero C1008, 48 h, read-out: EC50 (after 48 h)): 6.84
pEC50 ([2]; read-out: EC50 (24 h)): > 8.00
pIC50 (CatL [3]): 8.80
Solvent (max. solubility) [4]: 16 mg/mL
CC50 at 48 h [5]: > 10000 nM
CC50 (Vero cells): > 50000 nM
Tm of bovine serum albumin in the presence of compound (bovine serum albumin): 333.4 ± 0.8 K
2:1, Tm average (CatL) (CatL [6]): 81.6 °C
20:1, Tm average (CatL) (CatL [6]): 81.3 °C
ΔTm [K] for CatL, 2:1 ratio (CatL [6]): 18.5 ± 0.4 K
ΔTm (for CatL), 2:1 compound to protein mixing ratio (CatL [6]; pH 5): 18,5 ± 0,4 °C and 18.5 °C
ΔTm (for CatL), 20:1 compound to protein mixing ratio (CatL [6]; pH 5): 18,2 ± 0,2 °C and 18.2 °C
2:1, Tm average (Mpro) (SARS-CoV-2 Mpro; 2:1 compound to protein): 66.7 °C
ΔTm (for Mpro), 2:1 compound to protein mixing ratio (SARS-CoV-2 Mpro; pH 7.5): 11,7 ± 1,7 °C and 11.7 °C
pEC50 [7]: > 6.00
